{
  "source": "patent US4024121A",
  "about": "“(Pyro)-Glu-His-Trp-D-Ser-Tyr-D-Leu-Leu-Arg-Pro-NHR and intermediates” (priority 1976, dated 1977)",
  "key": {"LH-release": {"system": "LH-release", "assay": "LH-release in rats after subcutaneous injection (procedure of Arimura et al.)", "type": "in vivo", "settings": "50 ng subcutaneously"}, "LH-RH activity [1]": {"system": "LH-RH activity", "assay": "LH-RH activity compared with the natural hormone"}, "LH-RH activity [2]": {"system": "LH-RH activity", "settings": "literature reports; cited from earlier work"}},
  "data": [
    {"compound": "CC(C)C[C@H](NC(=O)CNC(=O)[C@H](Cc1ccc(O)cc1)NC(=O)[C@H](CO)NC(=O)[C@H](Cc1c[nH]c2ccccc12)NC(=O)[C@H](Cc1c[nH]cn1)NC(=O)[C@@H]1CCC(=O)N1)C(=O)N[C@@H](CCCNC(=N)N)C(=O)N1CCC[C@H]1C(=O)NCC(N)=O", "note": "[LH-RH, (pyro)-Glu-His-Trp-Ser-Tyr-Gly-Leu-Arg-Pro-Gly-NH2]", "values": [
      {"measurement": "duration of effect of the injection (LH release)", "setting": "LH-release", "value": "no effects of the injection are observed after one hour"},
      {"measurement": "time at which peak activity (LH release) is reached after injection", "setting": "LH-release", "value": "~15", "unit": "min"}
    ]},
    {"compound": "CC(C)C[C@H](NC(=O)CNC(=O)[C@H](Cc1ccc(O)cc1)NC(=O)[C@@H](CO)NC(=O)[C@H](Cc1c[nH]c2ccccc12)NC(=O)[C@H](Cc1c[nH]cn1)NC(=O)[C@@H]1CCC(=O)N1)C(=O)N[C@@H](CCCNC(=N)N)C(=O)N1CCC[C@H]1C(=O)NCC(N)=O", "note": "[[D-Ser^4]-LH-RH]", "values": [
      {"measurement": "LH-RH activity relative to the natural hormone", "setting": "LH-RH activity [1]", "value": "less than 5%"}
    ]},
    {"compound": "[D-Ala^6 ]-LH-RH", "values": [
      {"measurement": "activity compared with LH-RH", "setting": "LH-RH activity [2]", "value": "more active than LH-RH"}
    ]}
  ]
}
